Experimental data reported in patent US20030198617A1, “Pharmaceutical tryptophan containing dipeptide compositions and methods of use thereof” (priority 1993, published 2003).
Where two headings read alike, the source gives them in different places. Marks after values point to notes of the source that are not given here.

Tests used:
[1] = Chronic prostatitis, clinical result and immunological examination
Experimental: A clinical study of the preparation was conducted in 34 chronic prostatitis patients having active inflammation. Patients were aged 22 to 45 years old. Diagnosis was established by patient complaints, a medical history, palpation of the prostate, and laboratory investigation methods (microscopic examination of prostate gland secretions, spermography, three-cup urinalysis).
A traditional treatment plan was followed simultaneously, using antibacterial preparations, uroantiseptics, physical procedures, prostate gland massage, and therapeutic exercise.
Measurement reliability of the obtained indices was evaluated with the use of variable statistics methods.
The persistent disappearance (over an observation period of 1-1.5 months) of painful sensations, leukocyturia, the lowering of the leukocyte count to normal levels in prostate gland secretions and ejaculate, and the overall improvement in the general state of the patient were all deemed to be a good result.
The normalization of all laboratory indices while complaints of pain persisted in the perineum, sacrum, anal region, scrotum, etc. was rated as a satisfactory result.
The second group was made up of patients with lowered initial indices, and the third had patients with elevated initial indices.

[2] = Infected patients (Example 96); type: in vivo, human; conditions: IM862 100 μg 5-10 days, 36 patients
Description: A total of 36 patients infected and 24 patients infected were controls.

[3] = Acute radiation sickness, 6 months after accident, blood parameters; type: in vivo, human; conditions: after therapy with IM862
Experimental: The patients described above in Example 47 were tested for blood parameters after 6 months of treatment immediately following exposure to the radiation caused by the Chernobyl accident.

T-cells = experiment: T-cell rosette assay; type: cell-based; conditions: 10^6 cells per ml
[4] = Patients with fever, toxic symptoms, jaundice (Example 101); type: in vivo, human; conditions: IM862 IM or intranasally 5-10 days, 39 patients
Description: A total of 39 patients were studied with 27 patient controls. […] Immunological indices were normalized.

[5] = Radiation injury patients (Example 67); type: in vivo, human; conditions: IM862 100 μg 10 days, 263 patients
Description: A total of 263 patients and 18 control patients sustained exposure to radiation injury. […] A repeated course may be proscribed on the basis of immunological indices, and averages every 4 to 6 months. […] There was an arresting of asthenic syndrome, and an arresting of the somatic pathological exacerbations and reduction of opportunistic infections.

[6] = Prolonged IM862 therapy trials in irradiated patients, blood parameters; type: in vivo, human
Description: The group of patients described in Example 42 were further treated for a period of […] and tested again subsequent to the first stage of therapy (after 4 months) and after the second stage of therapy (6 months).

[7] = Young sportsmen, upper respiratory infections; type: in vivo, human; conditions: IM862 intranasally 1 μg/kg, 3 days, 84 sportsmen
Description: The control group consisted of 44 persons.

[8] = Immunity and non-specific resistance indices in breast cancer patients after radiotherapy; type: in vivo, human; conditions: after IM862 use
ARD and influenza = type: in vivo, human
[9] = 34 chronic prostatitis patients
[10] = after treatment 100 μg i.m. for 5 days
[11] = elevated in 1 patient, after treatment
[12] = initial level lowered n = 14, after treatment
[13] = normal in 34 patients, after treatment
[14] = after the 1st stage of IM862 use
[15] = after the 2nd state of IM862 use

Glu-Trp [IM862]
good result, share of patients [1, 9]: 76.5% | satisfactory result, number of patients [1, 9]: 8 patients | good result, number of patients ([1]; 34 chronic prostatitis patients, IM862 with traditional treatment): 26 patients | elevated and lowered immune indices upon completion of treatment ([1]; IM862 use): a normalization was observed in all the elevated and lowered indices | B-lymphocytes % [1, 10]: 27.24 ± 1.44% | B-lymphocytes Abs. quantity ×10^9 [1, 10]: 0.54 ± 0.10 ×10^9 | Complement units [1, 10]: 29.43 ± 0.53 units | IgA [1, 10]: 2.20 ± 0.12 g/L | IgG [1, 10]: 12.52 ± 0.63 g/L | Imm. complexes units [1, 10]: 0.080 ± 0.004 units | Phagocytosis % [1, 10]: 39.41 ± 3.51% | T-lymphocytes % [1, 10]: 44.44 ± 2.34% | T-lymphocytes Abs. quantity ×10^9 [1, 10]: 0.88 ± 0.07 ×10^9 | IgG [1, 11]: 14.71 ± 1.42 g/L | IgM [1, 11]: 3.44 g/L | T-lymphocytes % ([1]; initial level elevated n = 2, after treatment): 40.0 ± 15.5% | Complement units ([1]; initial level elevated n = 7, after treatment): 30.7 ± 0.89 units | B-lymphocytes % ([1]; initial level elevated n = 8, after treatment): 24.8 ± 2.91^x % | Imm. complexes units ([1]; initial level elevated n = 19, after treatment): 0.08 ± 0.006^x units | Phagocytosis % ([1]; initial level elevated n = 26, after treatment): 37.7 ± 3.94% | Phagocytosis % ([1]; initial level lowered n = 5, after treatment): 36.6 ± 8.54^x % | Imm. complexes units ([1]; initial level lowered n = 8, after treatment): 0.07 ± 0.011 units | B-lymphocytes % ([1]; initial level lowered n = 10, after treatment): 26.0 ± 2.91^x % | Complement units [1, 12]: 34.2 ± 0.93^x units | T-lymphocytes % [1, 12]: 37.9 ± 2.24% | Phagocytosis % ([1]; initial level normal n = 3, after treatment): 58.6 ± 17.98% | Imm. complexes units ([1]; initial level normal n = 7, after treatment): 0.08 ± 0.006 units | Complement units ([1]; initial level normal n = 13, after treatment): 29.3 ± 0.88 units | B-lymphocytes % ([1]; initial level normal n = 16, after treatment): 29.2 ± 2.15% | T-lymphocytes % ([1]; initial level normal n = 18, after treatment): 50.0 ± 3.57% | IgG ([1]; lowered in 2 patients, after treatment): 7.80 ± 1.13 g/L | IgM ([1]; normal in 33 patients, after treatment): 2.08 ± 0.12 g/L | Ig (character image) l [1, 13]: 2.20 ± 0.12 | IgG [1, 13]: 12.51 g/L | clinical effect [2]: reduction of fever | B-Ig+, % [3]: 19.0 ± 1.3 % | B-Ig+, abs [3]: 0.29 ± 0.03 10^9/liter | B-IgA+, % [3]: 1.8 ± 0.3% | B-IgA+, abs [3]: 0.030 ± 0.002 10^9/liter | B-IgG+, % [3]: 6.4 ± 0.5 % | B-IgG+, abs [3]: 0.100 ± 0.007 10^9/liter | B-IgM+, % [3]: 8.8 ± 0.7% | B-IgM+, abs [3]: 0.13 ± 0.02 10^9/liter | CD2, % [3]: 49 ± 3 % | CD3, % [3]: 53.4 ± 1.8 % | CD3, abs [3]: 0.82 ± 0.04** 10^9/liter | CD4, % [3]: 32.6 ± 1.4 % | CD4, abs [3]: 0.50 ± 0.04* 10^9/liter | CD19, % [3]: 26.7 ± 2.1% | CD19, abs [3]: 0.041 ± 0.03** 10^9/liter | CDS, % [3]: 21.2 ± 1.8% | CDS, abs [3]: 0.32 ± 0.03 10^9/liter | IgA [3]: 1.8 ± 0.9 g/L | IgG [3]: 10.9 ± 1.1 g/L | IgM [3]: 1.07 ± 0.09 g/L | LMI [3]: 72.7 ± 4.5 | Lymphocytes % [3]: 30.0 ± 1.8% | Lymphocytes, abs [3]: 1.52 ± 0.12* 10^9/liter | T4/T8 [3]: 1.54 ± 0.11 | concentration of peak effect for rosette activity (T-cells): approximately 0.0006 mcg/ml | clinical effect [4]: reduction of fever | clinical effect [5]: restoration of normal or near normal immune indices | CD2-DR+, % [6, 14]: 22.3 ± 0.5% | CD2-DR+, abs [6, 14]: 0.34 ± 0.05* 10^9/l | CD3, % [6, 14]: 35 ± 4 % | CD3, abs [6, 14]: 0.49 ± 0.06* 10^9/l | CD4, % [6, 14]: 19.5 ± 1.7 % | CD4, abs [6, 14]: 0.28 ± 0.03* 10^9/l | CD8, % [6, 14]: 15.4 ± 2.3% | CD8, abs [6, 14]: 0.23 ± 0.03 10^9/l | CD19, % [6, 14]: 15.0 ± 2.8% | CD19, abs [6, 14]: 0.21 ± 0.06 10^9/l | Leukocytes, abs [6, 14]: 4.7 ± 0.2* 10^9/l | Lymphocytes, abs [6, 14]: 1.5 ± 0.4 10^9/l | CD2-DR+, % [6, 15]: 29 ± 3 % | CD2-DR+, abs [6, 15]: 0.56 ± 0.08* 10^9/l | CD3, % [6, 15]: 46 ± 3 % | CD3, abs [6, 15]: 0.89 ± 0.11* 10^9/l | CD4, % [6, 15]: 24.1 ± 1.5 % | CD4, abs [6, 15]: 0.45 ± 0.04* 10^9/l | CD8, % [6, 15]: 22.3 ± 2.2 % | CD8, abs [6, 15]: 0.40 ± 0.05* 10^9/l | CD19, % [6, 15]: 21.1 ± 2.1 % | CD19, abs [6, 15]: 0.39 ± 0.06* 10^9/l | Leukocytes, abs [6, 15]: 5.5 ± 0.3* 10^9/l | Lymphocytes, abs [6, 15]: 1.9 ± 0.5* 10^9/l | reduction of upper respiratory infections and rates of illness [7]: 4 fold | B-lymphocyte (Ig^+) (×10^9/l) [8]: 0.17 ± 0.02 ×10^9/l | C3-complement [8]: 0.68 ± 0.04 g/L | Cation [8]: 1.49 ± 0.12 | LMI with ConA, % [8]: 71 ± 5 % | Lymphocytes ×10^9/l [8]: 1.72 ± 0.21 ×10^9/l | OKT4^+/OKT8^+ [8]: 1.86 ± 0.17 | Phagocytic index [8]: 3.7 ± 0.2 | T-helpers (OKT4^+) [8]: 0.39 ± 0.04 | T-lymphocytes (×10^9/l) [8]: 0.92 ± 0.12 ×10^9/l | T-suppressors (OKT8^+) (×10^9/l) [8]: 0.21 ± 0.03 ×10^9/l | “Active” T-lymphocytes (×10^9/l) [8]: 0.52 ± 0.07 ×10^9/l | DSH to tuberculin (mm) ([8]; delayed-skin hypersensitivity): 8.7 ± 0.6 mm | SI to IM862 ([8]; sensitivity index): 1.27 ± 0.14 | Average term of hospitalization (ARD and influenza; 1st month): 6.2 days | Need in hospitalization, % (ARD and influenza; 1st month): 27.0% | Number of temporary disablement cases/100 persons/month (ARD and influenza; 1st month): 3.8 cases/100 persons/month | Number of temporary disablement days/100 persons/month (ARD and influenza; 1st month): 24.0 days/100 persons/month | Sickness rate/100 persons/month (ARD and influenza; 1st month): 9.6 /100 persons/month | Average term of hospitalization (ARD and influenza; 2nd month): 6.2 days | Need in hospitalization, % (ARD and influenza; 2nd month): 27.1% | Number of temporary disablement cases/100 persons/month (ARD and influenza; 2nd month): 7.3 cases/100 persons/month | Number of temporary disablement days/100 persons/month (ARD and influenza; 2nd month): 48.6 days/100 persons/month | Sickness rate/100 persons/month (ARD and influenza; 2nd month): 11.3 /100 persons/month | Average term of hospitalization (ARD and influenza; 3rd month): 6.2 days | Need in hospitalization, % (ARD and influenza; 3rd month): 28.3% | Number of temporary disablement cases/100 persons/month (ARD and influenza; 3rd month): 3.4 cases/100 persons/month | Number of temporary disablement days/100 persons/month (ARD and influenza; 3rd month): 14.3 days/100 persons/month | Sickness rate/100 persons/month (ARD and influenza; 3rd month): 9.4 /100 persons/month | Average term of hospitalization (ARD and influenza; 4th month): 7.0 days | Need in hospitalization, % (ARD and influenza; 4th month): 28.3% | Number of temporary disablement cases/100 persons/month (ARD and influenza; 4th month): 3.6 cases/100 persons/month | Number of temporary disablement days/100 persons/month (ARD and influenza; 4th month): 26.3 days/100 persons/month | Sickness rate/100 persons/month (ARD and influenza; 4th month): 11.0 /100 persons/month | Average term of hospitalization (ARD and influenza; IM862 group): 6.2 days | Need in hospitalization (ARD and influenza; IM862 group): 30.6 | Number of temporary disablement cases/100 persons/month (ARD and influenza; IM862 group): 4.1 cases/100 persons/month | Number of temporary disablement days/100 persons/month (ARD and influenza; IM862 group): 26.5 days/100 persons/month | Pneumonia rate/100 persons/month (ARD and influenza; IM862 group): 0.20 /100 persons/month | Rate of lingering and complicated cases, % (ARD and influenza; IM862 group): 3.9% | Sickness rate per 100 persons/month (ARD and influenza; IM862 group): 9.8 per 100 persons/month | The same index in-patients, % (ARD and influenza; IM862 group, lingering and complicated cases): 9.8% | Index of efficiency: Average term of hospitalization (ARD and influenza; IM862 vs control): 1.4 | Index of efficiency: Need in hospitalization (ARD and influenza; IM862 vs control): 1.7 | Index of efficiency: Pneumonia rate (ARD and influenza; IM862 vs control): 2.5 | Index of efficiency: Rate of lingering and complicated cases (ARD and influenza; IM862 vs control): 3.5 | Index of efficiency: Sickness rate (ARD and influenza; IM862 vs control): 3.1 | Index of efficiency: The same index in-patients (ARD and influenza; IM862 vs control): 2.7 | Index of efficiency: temporary disablement cases (ARD and influenza; IM862 vs control): 1.7 | Index of efficiency: temporary disablement days (ARD and influenza; IM862 vs control): 2.2
